Experiment [1] relates to Bacillus subtilis (ATCC 19659) spores. Kind of experiment: Bacillus subtilis sporicidal suspension test. The settings on record: 20° C.; for sporicidal activity (in words): Table 1 results; for sporicidal activity (in words) / enhancement of the sporicidal activity of ortho-phthalaldehyde (in words): 5 hours; for enhancement of the sporicidal activity of ortho-phthalaldehyde (in words): Tables 2-4, 0.3 wt. % ortho-phthalaldehyde. Type of experiment: cell-based.
Experimental: The phrase “Bacillus subtilis sporicidal suspension test”, when used in the appended claims means a determination of the sporicidal activity of a dialdehyde calculated as a log reduction of Bacillus subtilis bacterial spores. The test is performed according to Example 1 by treatment of Bacillus subtilis bacterial spores with a formulation consisting of the dialdehyde to be tested in water. The log10 reduction/mL is calculated from log N0−log Ni where N0 represent the number of organisms (cfu/mL) at time zero; and Ni represent the number of surviving organism (cfu/mL) at designated exposure time.
Several ortho-phthalaldehyde based germicidal solutions were tested to determine their effectiveness in killing Bacillus subtilis (ATCC 19659) spores using the Bacillus subtilis sporicidal suspension test.
For preparation of the inoculating spore test suspension, a 1 ml aliquot of the spore harvest was serial diluted with sterile water to produce a spore suspension of approximately 1×10^7 cfu ml.
Test solutions of ortho-phthalaldehyde/acetate were prepared by mixing acetate with CIDEX® OPA (which is a 0.55% solution of ortho-phthalaldehyde in water around pH 7.3, commercially available from Advanced Sterilization Products, a Johnson & Johnson Company) and diluted to levels indicated in Table 1.
The 1 ml aliquots of spore suspensions were exposed to 9 ml of ortho-phthalaldehyde solution at 20° C. The pHs of the tested solutions were adjusted to 7.3-7.5.
The experiments were performed using the suspension test, which involved adding 1 ml of 10^7 spores to sterile test tubes containing 9 ml of the challenge solution. The resulting test sample spore concentration was 10^6 cfu /ml. The tubes containing the test suspension/spores were vortex briefly to allow for mixing of the solution/spores. At the end of each of the appropriate exposure time at 20° C., 1 ml aliquots of the solution/spores mixture were aseptically transferred to sterile filtration units containing 0.45μ membrane filters with 100 ml of neutralizer solution (1% w/v glycine solution). The solutions were filtered and the membrane filters were rinsed again with 100 ml of neutralizers solution. The membrane filters were then individually transferred onto the surface of commercially available sterile Tryptic Soy Agar plates. The plates were incubated at 37° C. for 48 hours. After incubation, the number of survivors were determined for each test sample/exposure time.
The log10 reduction/mL is calculated from log N0−log Ni where N0 represent the number of organism (cfu/mL) at time zero; and Ni represent the number of surviving organism (cfu/mL) at designated exposure time.
In addition to acetate, several mixtures of ortho-phthalaldehyde with different carboxylates such as chloroacetate and propionate were also tested using the protocol described above in Example 1.
Benzoate was evaluated for its ability to enhance the sporicidal activity of ortho-phthalaldehyde using the protocol described above in Example 1. The pHs of all solutions were adjusted to neutral, 7.3-7.5.
Spore suspension tests with five germicide solutions containing 2.4% glutaraldehyde with various amounts of acetate ranging from 0 to 7% were conducted at 20° C. for 4 hours with Bacillus using the protocol described above in Example 1. The pHs of the solutions were adjusted to 8.2-8.9, which is the typical pH range for glutaraldehyde disinfecting solutions.

In a further experiment the test system is spores of B. subtilis. The settings on record: cited from earlier work.
Another experiment deals with Bacillus subtilis spores. Kind of experiment: Time kill assay. It counts as cell-based. The settings on record: Table 6; 0.3% ortho-phthalaldehyde, 20° C. The protocol: Test solutions were prepared by mixing acetate with ortho-phthalaldehyde (if applicable) and the solutions were adjusted to pH 7.2. The solutions were then challenged with 10^6 per ml of Bacillus subtilis spores at 20° C. (room temperature). At each predetermined exposure time, samples from each of the test solutions were tested/assayed for survivors.

As to `O=Cc1ccccc1C=O` [ortho-phthalaldehyde, reference compound], the “sporicidal activity (in words)” value in experiment [1] was “does not have significant sporicidal activity”. The “activity against spores of B. subtilis (in words)” value in the experiment on spores of B. subtilis is given as “relatively ineffective against spores of B. subtilis”.

Regarding `O=C(O)c1ccccc1` [benzoate], in experiment [1], the “enhancement of the sporicidal activity of ortho-phthalaldehyde (in words)” value (shortened to “enhancement … of ortho-phthalaldehyde (in words)”) is recorded as “enhances ortho-phthalaldehyde sporicidal efficacy when the benzoate concentration is above about 3%”.

On to `O=C(O)CCl` [chloroacetate], for which, in experiment [1], the “enhancement … of ortho-phthalaldehyde (in words)” value is given as “significantly enhance the sporicidal activity of ortho-phthalaldehyde”.

Turning to `CCC(=O)O` [propionate], the “enhancement … of ortho-phthalaldehyde (in words)” value in experiment [1] is given as “significantly enhance the sporicidal activity of ortho-phthalaldehyde”.

Regarding `CC(=O)[O-].[K+]` [acetate, potassium acetate], the “sporicidal activity (in words)” value in experiment [1] is listed as “does not have significant sporicidal activity”. Moreover, the “enhancement of the sporicidal activity of glutaraldehyde (in words)” value in experiment [1] (Table 5, 2.4% glutaraldehyde, 4 hours) was “the sporicidal activity of glutaraldehyde is significantly enhanced”. The “enhancement … of ortho-phthalaldehyde (in words)” value with Bacillus subtilis spores is recorded as “the sporicidal activity of ortho-phthalaldehyde is significantly enhanced”.

Source of the values: patent US20090111895A1, “ENHANCED DIALDEHYDE DISINFECTANT AND STERILIZATION FORMULATIONS” (Ethicon, Inc., priority 2007, published 2009).
